Patent US20050059626A1, “Methods of preventing and treating viral infections using immunomodulatory polynucleotide sequences” (priority 2000, published 2005)
Read-outs that look alike come from different tables or passages of the source.

Tests used:
[1] = test system: influenza A/Mississippi (H3N2) virus; type: in vivo, mice; conditions: for Pulmonary virus titer (log10/lung) Mean / Pulmonary virus titer (log10/lung) in mouse no. 1 / Pulmonary virus titer (log10/lung) in mouse no. 2 / Pulmonary virus titer (log10/lung) in mouse no. 3 / Pulmonary virus titer (log10/lung) in mouse no. 4 / Pulmonary virus titer (log10/lung) in mouse no. 5 / Pulmonary virus titer (log10/lung) in mouse no. 6 / Pulmonary virus titer (log10/lung) in mouse no. 7: non-ISS = SEQ ID NO:9
[2] = test system: influenza A/Mississippi (H3N2) virus; type: in vivo, mice; conditions: for Pulmonary virus titer (log10/lung) Mean / Pulmonary virus titer (log10/lung) in mouse no. 1 / Pulmonary virus titer (log10/lung) in mouse no. 2 / Pulmonary virus titer (log10/lung) in mouse no. 3 / Pulmonary virus titer (log10/lung) in mouse no. 4 / Pulmonary virus titer (log10/lung) in mouse no. 5: non-ISS = SEQ ID NO:10
HBV = experiment: Chronic HBV model: serum HBV DNA and HBsAg in STC transgenic mice; type: in vivo, STC strain transgenic mice
Procedure: ISS activity was tested in an animal model of chronic hepatitis. An ISS-containing phosphorothioate oligonucleotide (5′-[…]-3′) (SEQ ID NO:1), was delivered to STC strain transgenic mice, followed by measurement of HBV DNA and HBsAg production.
STC line mice were developed at Stanford University by Patricia Marion. The majority of these mice secrete HBV of the Ayw genotype (Galibert et al. (1979) Nature 281:646) to titers of 10^6-8 viral genome equivalents per ml of serum. STC mice were derived from the FVB strain, and were constructed by microinjection of HBV genomic DNA.
Approximately one month old mice were bled and tested for serum levels of HBsAg, which is predictive of viral DNA titer. A pool of 40 STC mice with approximately equal levels of HBsAg were selected and randomly assigned to four treatment groups of 10 animals each. The groups were treated as follows: • 1. 100 μg of ISS injected subcutaneously, once per week for 3 weeks (days 0, 7, 14) • 2. 100 μg of ISS injected subcutaneously, one injection at day 14 • 3. 100 ng of murine 1L-12 injected intraperitoneally on days 12, 13, and 14. • 4. PBS injected subcutaneously (days 0, 7, 14)
Blood samples were taken at day 0, 7, 14, 15 (22 hr after last IL-12 injection), 18, 28 and 35. Serum prepared from the blood samples was tested for HBV DNA by quantitative PCR (testing performed under contract by Hepadnavirus Testing, Inc.), and HBsAg using a commercially available EIA kit for HBsAg from Abbott Laboratories. Animals were sacrificed at day 35 and livers were collected for histologic analysis.

HSV-2 strain 186 = experiment: Vaginal HSV-2 lethal challenge in mice; type: in vivo, Swiss Webster mice
Excerpt: Outbred Swiss Webster mice, vaginally infected with HSV-2 strain 186, were used as a model of HSV infection. In these animals, the first indication of viral infection is hair loss and erythema (HLE) near the vagina occurring, on average, 5 days after inoculation. The next stage of infection is indicated by chronic wetness (CW) due to loss of bladder control, on average, 6 days after inoculation. A portion (about 50% of infected mice) of the animals develop hind limb paralysis (HLP) at approximately the same time point. Death, which is often preceded by evidence of CNS disease, occurs an average of 7-9 days after viral inoculation.
Mice were prepared for infection by an initial two-dose treatment with depopriven to synchronize cycles and to thin the vaginal epithelium. Vaginal mucous was removed by swabbing with calcium alginate, then a lethal challenge dose (determined by titration) of HSV-2 strain 186 was delivered by positive-displacement pipettor. Inoculated mice were randomly grouped into one of 4 treatment groups (n=15/group). Animals in group 1 received no treatment and served as a control for the study. Animals in the second and third groups were treated topically with 100 μg of an ISS-containing phosphorothioate oligonucleotide (5′-[…]-3′) (SEQ ID NO:1) suspended in phosphate-buffered saline (PBS). The groups were treated 2 or 6 hours after inoculation. As a vehicle control, group four was treated with PBS alone.
In another experiment, inoculated mice were randomly grouped into 8 treatment groups (n=16/group). Animals in the groups received treatments as outlined in Table 11 below. The groups were treated 2 hours after virus inoculation.

HSV-2 strain MS = experiment: Recurrent genital HSV-2 disease in guinea pigs; type: in vivo, Swiss Hartley guinea pigs
HSV-1 = experiment: Viral titer after pre-treating HSV-1 virus with oligonucleotide, Vero cells; type: cell-based, African Green monkey (Vero cells)
Procedure: (§1) HSV-1 or HSV-2 virus was pre-treated with varying concentrations of ISS or non-ISS oligonucleotides for 10 minutes prior to adding the mixture to plated Vero cells. Oligonucleotides were used at 1 μg/ml or 10 μg/ml. Viral titers were calculated as a percent of control titer generated by cells not treated with the oligonucleotides. The data are expressed as percent of control titer.

HSV-2 = experiment: Viral titer after pre-treating HSV-2 virus with oligonucleotide, Vero cells; type: cell-based, African Green monkey (Vero cells)
Procedure: as §1

CRPV-E8m = experiment: Rabbit papilloma model (CRPV-E8m), papilloma geometric mean diameter
Procedure: In another experiment, a mutant of CRPV which induces small papillomas, CRPV-E8m, was used to induce papillomas on five rabbit treatment groups (five rabbits per group). In each animal, papillomas on the left side of the animal received treatments and papillomas on the right side were untreated. Four of the treatment groups received doses between 100 μg and 2000 μg of ISS as intradermal injections per papilloma at several treatment regimes and the fifth group received injections of PBS as control, as outlined below.
Four papillomas, initiated with CRPV-E8m plasmid DNA, were established on each rabbit. Skin at the site of papilloma initiation was made hyperplastic using a mixture of turpentine and acetone prior to viral DNA administration. The size of papillomas was measured (three dimensions, in mm) and the GMD calculated for each papilloma.

[3] = 50 μg IN Day 0 shortly before virus, lungs Day 4
[4] = 50 μg IN Day −3, virus Day 0, lungs Day 4
[5] = 50 μg IP Day −1, virus Day 0, lungs Day 4
[6] = 50 μg IP Day −3, virus Day 0, lungs Day 4
[7] = 100 μg topical 2 h post-inoculation (PI)
[8] = 100 μg topical 6 h post-inoculation (PI)

## 5′-TGACTGTGAACGTTCGAGATGA-3′ [SEQ ID NO: 1]
[1]; [3]
  Pulmonary virus titer (log10/lung) Mean: 4.6 log10/lung
  Pulmonary virus titer (log10/lung) in mouse no. 1: 4 log10/lung
  Pulmonary virus titer (log10/lung) in mouse no. 2: 5.5 log10/lung
  Pulmonary virus titer (log10/lung) in mouse no. 3: 5 log10/lung
  Pulmonary virus titer (log10/lung) in mouse no. 4: 4.5 log10/lung
  Pulmonary virus titer (log10/lung) in mouse no. 5: 4.5 log10/lung
  Pulmonary virus titer (log10/lung) in mouse no. 6: 4.5 log10/lung
  Pulmonary virus titer (log10/lung) in mouse no. 7: 4.5 log10/lung
[1]; [4]
  Pulmonary virus titer (log10/lung) Mean: 4.7 log10/lung
  Pulmonary virus titer (log10/lung) in mouse no. 1: 5.5 log10/lung
  Pulmonary virus titer (log10/lung) in mouse no. 2: 4 log10/lung
  Pulmonary virus titer (log10/lung) in mouse no. 3: 6 log10/lung
  Pulmonary virus titer (log10/lung) in mouse no. 4: 5.5 log10/lung
  Pulmonary virus titer (log10/lung) in mouse no. 5: 5 log10/lung
  Pulmonary virus titer (log10/lung) in mouse no. 6: 4 log10/lung
  Pulmonary virus titer (log10/lung) in mouse no. 7: 3 log10/lung
[1]; IN, 50 μg/mouse before viral infection
  Reduction in influenza virus titer compared to PBS: fails to cause a satisfactory significant reduction in virus titer
[2]; [5]
  Pulmonary virus titer (log10/lung) Mean: 6.8 log10/lung
  Pulmonary virus titer (log10/lung) in mouse no. 1: 6.3 log10/lung
  Pulmonary virus titer (log10/lung) in mouse no. 2: 6.8 log10/lung
  Pulmonary virus titer (log10/lung) in mouse no. 3: 7.3 log10/lung
  Pulmonary virus titer (log10/lung) in mouse no. 4: 6.8 log10/lung
  Pulmonary virus titer (log10/lung) in mouse no. 5: 6.8 log10/lung
[2]; [6]
  Pulmonary virus titer (log10/lung) Mean: 6.9 log10/lung
  Pulmonary virus titer (log10/lung) in mouse no. 1: 7.3 log10/lung
  Pulmonary virus titer (log10/lung) in mouse no. 2: 5.8 log10/lung
  Pulmonary virus titer (log10/lung) in mouse no. 3: 7.3 log10/lung
  Pulmonary virus titer (log10/lung) in mouse no. 4: 6.8 log10/lung
  Pulmonary virus titer (log10/lung) in mouse no. 5: 7.3 log10/lung
[2]; IP, 50 μg/mouse before viral infection
  Reduction in influenza virus titer compared to PBS: fails to cause a satisfactory significant reduction in virus titer
HBV; Group 2: single SC injection 100 μg at day 14, three days after injection
  Reduction of mean viral DNA titer: 90 fold
HBV; STC mice, 100 μg SC
  Serum HBsAg levels versus PBS controls: trend towards decreased average HBsAg values
HBV; STC mice, ISS 100 μg SC, murine IL-12 100 ng IP days 12, 13, 14
  Effect on serum HBV DNA viral titer: effective in reducing viral titer
HSV-2 strain 186; 100 μg topical 2 or 6 hours after inoculation
  Overall effect on HSV2 disease (incidence, survival, time to symptoms and death): decreased incidence (i.e., individuals showing symptoms of HSV2 infection), improved survival and delays in both appearance of symptoms and time to death
HSV-2 strain 186; [7]
  Incidence (%): 60%
  Incidence (animals with symptoms/total): 9/15
  Survival (%): 40%
  Survival (survivors/total): 6/15
  Time to Death: 12 days
  Time to Symptoms: 6.6 days
HSV-2 strain 186; [8]
  Incidence (%): 80%
  Survival (%): 27%
  Survival (survivors/total): 4/15
  Time to Death: 10.6 days
  Time to Symptoms: 5.75 days
HSV-2 strain 186; animals that died, treated two hours after infection
  Change in average time to death: increased by an average of over two days
HSV-2 strain MS; 200 μg at 21 days PI (one group also days 42 and 63), ANOVA p=0.012
  Frequency of recurrences (recurrent lesions): significant reduction in the frequency of recurrences
HSV-2 strain MS; single topical treatment 1 mg at day 21
  Effect on frequency of viral shedding: unaffected
HSV-2 strain MS; single topical treatment 1 mg at day 21, vs control groups, p<0.001
  Magnitude of viral shedding: significantly reduced
HSV-2 strain MS; single topical treatment 1 mg at day 21, vs non-ISS control or untreated
  Cumulative mean recurrent lesion days: significantly decreased the cumulative mean recurrent lesion days
HSV-1; HSV virus incubated with ISS prior to infecting cells in vitro (HSV-1 and HSV-2, Table 13)
  Effect on viral titers from infected cells: no effect on the viral titers
HSV-1; HSV-1 virus pre-treated 10 minutes with 1 μg/ml
  Viral titer, percent of control titer: 101% of control titer
HSV-1; HSV-1 virus pre-treated 10 minutes with 10 μg/ml
  Viral titer, percent of control titer: 109% of control titer
HSV-2; HSV-2 virus pre-treated 10 minutes with 1 μg/ml
  Viral titer, percent of control titer: 96% of control titer
HSV-2; HSV-2 virus pre-treated 10 minutes with 10 μg/ml
  Viral titer, percent of control titer: 102% of control titer
CRPV-E8m; Treatment Group C: 500 μg/injection, 1 time/week days 47-86, intradermal
  Size of papillomas (GMD), treated versus untreated: reduction in the size of the ISS treated papillomas compared to untreated papillomas
CRPV-E8m; Treatment Groups A, B, D (100 μg 3x/week; 100 μg 1x/week; 2000 μg weeks 7 and 10), intradermal
  Papilloma growth rates, treated versus untreated papillomas: Minimal differences
